The values that follow come from PubChem BioAssay (NCI).

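How tested: cells in 96-well plates exposed to compound for 48 hours at five concentrations. TGI: concentration producing complete growth inhibition.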

Among the test systems are CCRF-CEM leukemia; COLO 205 colon; HCT-15 colon; HL-60(TB) leukemia; MOLT-4 leukemia; NCI-H226 lung; NCI-H23 lung; TK-10 renal; UACC-62 melanoma; UO-31 renal.
Assay in all cases: growth of human tumour cells (NCI), 48 h

Turning to `CC(C)=CCC[C@H](C)[C@H]1CC[C@@H](C)c2cc(O)c(C)cc21`, the TGI was found to be 68 µM in the test with CCRF-CEM leukemia; 34.3 µM in the test on COLO 205 colon; 35.1 µM with HCT-15 colon; 41.7 µM with HL-60(TB) leukemia; 51 µM in the test on MOLT-4 leukemia; 33.3 µM with NCI-H226 lung. The TGI came out at 33 µM with NCI-H23 lung, 32.8 µM in the test with TK-10 renal, 27.9 µM with UACC-62 melanoma and 28.2 µM in the test on UO-31 renal.
Take `CC1(C)OC(=S)N(c2ccccc2)C12C=Cc1cc3ccccc3cc1O2` (stereo not given): the TGI in the test with CCRF-CEM leukemia, in the test on COLO 205 colon, in the test with HCT-15 colon, in the test with HL-60(TB) leukemia, in the test on MOLT-4 leukemia and with NCI-H226 lung was above 100 µM in each case. Further, the TGI in the test with NCI-H23 lung, with TK-10 renal, in the test with UACC-62 melanoma and with UO-31 renal was above 100 µM each time.
Turning to `CC1Cc2cc(O)ccc2C2[C@@H]1C1CC[C@H](O)[C@@]1(C)C[C@@H]2O[N+](=O)[O-]` (stereo not given in full), the TGI in the test with CCRF-CEM leukemia is 41.9 µM; in the test on COLO 205 colon, 50.6 µM; with HCT-15 colon, above 78.7 µM; in the test with HL-60(TB) leukemia, 8.3 µM; with MOLT-4 leukemia, above 100 µM; in the test with NCI-H226 lung, above 100 µM. In addition, the TGI with NCI-H23 lung came out at 67.8 µM; in the test with TK-10 renal it was 63.8 µM; in the test with UACC-62 melanoma it was 44 µM; in the test with UO-31 renal, 63.7 µM.
Turning to `CC(=O)OC1COC(Nn2c(=O)[nH]c3ccccc3c2=O)C(OC(C)=O)C1OC(C)=O` (stereo not given), the TGI with CCRF-CEM leukemia, in the test with COLO 205 colon, with HCT-15 colon, with HL-60(TB) leukemia, in the test on MOLT-4 leukemia and in the test on NCI-H226 lung was above 100 µM in each case. For the same molecule, the TGI with NCI-H23 lung, in the test with TK-10 renal, in the test on UACC-62 melanoma and in the test on UO-31 renal was above 100 µM throughout.
Consider `Cc1nc(C)c(N2CCN(C#N)CC2)c(=O)[nH]1`, for which the TGI with CCRF-CEM leukemia, in the test with COLO 205 colon, in the test on HCT-15 colon, in the test with HL-60(TB) leukemia, in the test on MOLT-4 leukemia and in the test on NCI-H226 lung was above 100 µM throughout. The TGI in the test on NCI-H23 lung, in the test with TK-10 renal, with UACC-62 melanoma and with UO-31 renal was above 100 µM throughout.
`CCOP(=O)(OCC)/C(C#N)=C/c1c(C)[nH]c2ccccc12`: the TGI in the test on CCRF-CEM leukemia, in the test on COLO 205 colon, in the test with HCT-15 colon, in the test with HL-60(TB) leukemia, in the test on MOLT-4 leukemia and with NCI-H226 lung was above 100 µM throughout. Moreover, the TGI in the test with NCI-H23 lung was above 100 µM; with TK-10 renal it was above 100 µM; with UACC-62 melanoma, above 100 µM; with UO-31 renal, 47.8 µM.
`COc1ccc([C@@H]2CC(=O)NCCCCNCCCN2)cc1`: the TGI with CCRF-CEM leukemia, in the test with COLO 205 colon, in the test with HCT-15 colon, with HL-60(TB) leukemia, with MOLT-4 leukemia and in the test with NCI-H226 lung was above 100 µM throughout. Further, the TGI with NCI-H23 lung, in the test on TK-10 renal, in the test with UACC-62 melanoma and in the test on UO-31 renal was above 100 µM in each case.
Regarding `COC(Cc1ccccc1)NC(C)=O` (stereo not given), the TGI in the test with CCRF-CEM leukemia, in the test with COLO 205 colon, with HCT-15 colon, in the test with HL-60(TB) leukemia, with MOLT-4 leukemia and in the test on NCI-H226 lung was above 100 µM each time. Further, the TGI with NCI-H23 lung, with TK-10 renal, in the test with UACC-62 melanoma and in the test with UO-31 renal was above 100 µM throughout.
For `Cc1cc(NCCCCCCNc2cc(C)nc3ccc(Cl)cc23)c2cc(Cl)ccc2n1`, the TGI in the test with CCRF-CEM leukemia is 83.6 µM; in the test on COLO 205 colon, 32.3 µM; with HCT-15 colon, 33.1 µM; in the test with HL-60(TB) leukemia, 47.8 µM; with MOLT-4 leukemia it was above 100 µM; in the test on NCI-H226 lung, above 100 µM. The TGI in the test with NCI-H23 lung worked out at 30.7 µM; in the test on TK-10 renal it was 62.1 µM; in the test with UACC-62 melanoma, 36 µM; in the test on UO-31 renal, 62.2 µM.
Take `CC1(C)O[C@@H]2[C@@H]3OC(=O)C[C@@H]3[C@@H](COCc3ccccc3)[C@@H]2O1`: the TGI in the test on CCRF-CEM leukemia, in the test with COLO 205 colon, in the test with HCT-15 colon, in the test on HL-60(TB) leukemia, with MOLT-4 leukemia and in the test with NCI-H226 lung was above 100 µM throughout. Besides, the TGI with NCI-H23 lung, with TK-10 renal, with UACC-62 melanoma and in the test on UO-31 renal was above 100 µM each time.
Turning to `Nc1ccc(N)c2c1C(=O)c1c(N)ccc(N)c1C2=O`, the TGI is above 68.3 µM with CCRF-CEM leukemia; above 100 µM with COLO 205 colon; above 100 µM in the test with HCT-15 colon; above 100 µM in the test on HL-60(TB) leukemia; above 63.6 µM in the test with MOLT-4 leukemia; 67.8 µM in the test on NCI-H226 lung. Also, the TGI with NCI-H23 lung, with TK-10 renal, in the test on UACC-62 melanoma and in the test on UO-31 renal was above 100 µM throughout.
For the molecule `O=C(CSc1nnc(-c2ccc(N=Cc3ccc(Cl)cc3)cc2)o1)Nc1cccc(Cl)c1`, the TGI with CCRF-CEM leukemia, in the test on COLO 205 colon, in the test on HCT-15 colon, in the test with HL-60(TB) leukemia, with MOLT-4 leukemia and in the test on NCI-H226 lung was above 100 µM throughout. The TGI with NCI-H23 lung, in the test on TK-10 renal, in the test with UACC-62 melanoma and in the test with UO-31 renal was above 100 µM throughout.
On to `COc1cc(OC)nc(Nc2c(C#N)c3nc4ccccc4n3c3ccccc23)n1`, for which the TGI with CCRF-CEM leukemia, in the test on COLO 205 colon, in the test with HCT-15 colon, with HL-60(TB) leukemia, in the test with MOLT-4 leukemia and in the test with NCI-H226 lung was above 100 µM throughout. In addition, the TGI was above 100 µM with NCI-H23 lung, 74.2 µM in the test on TK-10 renal, above 100 µM in the test with UACC-62 melanoma and above 100 µM with UO-31 renal.
With `CP(C)(=S)P(C)(C)=S`, the TGI in the test on CCRF-CEM leukemia, in the test with COLO 205 colon, in the test on HCT-15 colon, in the test on HL-60(TB) leukemia, in the test with MOLT-4 leukemia and in the test on NCI-H226 lung was above 100 µM throughout. Moreover, the TGI with NCI-H23 lung, in the test with TK-10 renal, with UACC-62 melanoma and in the test with UO-31 renal was above 100 µM in each case.
